# Results as given in paper PMC10360169 (Frontiers in Immunology, 2023).
# Tested on: Acar3
# Assay type: binding, great reed warbler Acrocephalus arundinaceus
# Conditions: for Stability T½ (h), peptide - Acar3: Table S5, half-life estimated from dissociation in scintillation proximity assay; for Stability T½ of Acar3 in complex with the peptide: Table S1, top 94 PSCPL-scoring peptides, SPA, 10µM peptide, 125I β2m, folding over night at 18°C, dissociation measured up to 24 hours at 37°C
Sequence,"Stability T½ (h), peptide - Acar3",Stability T½ of Acar3 in complex with the peptide
AANMYIYPL [9-mer peptide],0.1 h,
AEMRETHWL [9-mer peptide],5.0 h,300 min
AKIEAPLLL [9-mer peptide],2.5 h,150 min
AMAAGLSSL [9-mer peptide],0.3 h,18 min
AMMWRIAQL [9-mer peptide],0.3 h,18 min
AMPKTIYEL [9-mer peptide],3.8 h,228 min
AVMFFPFWF [9-mer peptide],0.6 h,36 min
ETMKPAAMV [9-mer peptide],2.7 h,162 min
FHMSKPSDL [9-mer peptide],0.8 h,48 min
FLDKGTYTL [9-mer peptide],0.3 h,18 min
FLLENAAYL [9-mer peptide],1.2 h,72 min
FLQGAKWYL [9-mer peptide],0.1 h,
FMFDYIPPV [9-mer peptide],0.2 h,
FMIVNNFPV [9-mer peptide],0.3 h,18 min
FQANMFLTL [9-mer peptide],1.2 h,72 min
FQMGGIGPM [9-mer peptide],0.7 h,42 min
FRMLAWHVL [9-mer peptide],0.3 h,18 min

Sequence,"Stability T½ (h), peptide - Acar3",Stability T½ of Acar3 in complex with the peptide
GAMYALANF [9-mer peptide],0.6 h,36 min
GLAATSFPL [9-mer peptide],1.5 h,90 min
GMNVTAPAL [9-mer peptide],0.3 h,18 min
GMVGAEFSL [9-mer peptide],7.6 h,456 min
GRLVTVNPF [9-mer peptide],0.5 h,30 min
HELSLFWPL [9-mer peptide],1.1 h,66 min
ILMEHIHKL [9-mer peptide],0.2 h,12 min
IMDASSFTL [9-mer peptide],1.4 h,84 min
KAMRPWQSF [9-mer peptide],0.4 h,24 min
KAMSTPFSL [9-mer peptide],5.3 h,318 min
KIMQVDRPM [9-mer peptide],2.6 h,156 min
KLMDVVYSI [9-mer peptide],0.4 h,24 min
KMAAFPETL [9-mer peptide],0.4 h,24 min
KMNAKAATL [9-mer peptide],2.1 h,126 min
KQLELFWVI [9-mer peptide],0.2 h,
KQLESVMYL [9-mer peptide],1.3 h,78 min
KQLEYSWVL [9-mer peptide],0.1 h,
